From PubChem BioAssay AID248 (DTP/NCI, 2004)
Where “and” joins values, the source holds several entries; their conditions need not be identical. Equal entries are not always repeated. Inconclusive results and toxic doses are left out. No stated cut-off is given here; in the data, active means T/C of 150% or more; inactive means T/C below 125%.

System: L1210 leukemia ip in BDF1 mice, survival T/C
Assay: NCI In Vivo Anticancer Drug Screen. Data for tumor model L1210 Leukemia (intraperitoneal) in B6D2F1 (BDF1) mice
Settings: endpoint: mean survival time, higher = longer survival
How it was run: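 Mice bearing the transplanted tumor received compound or vehicle. Survival of the treated group was divided by that of the vehicle-treated control group to give the ratio.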

[1] = dose: 100.0 mg/kg/injection, schedule: Q04DX003 (ip), vehicle: saline with Tween-80
[2] = dose: 200.0 mg/kg/injection, schedule: Q04DX003 (ip), vehicle: saline with Tween-80
[3] = dose: 400.0 mg/kg/injection, schedule: Q04DX003 (ip), vehicle: saline with Tween-80
[4] = dose: 100.0 mg/kg/injection, schedule: Q01DX001 (ip), vehicle: carboxymethylcellulose (CMC)
[5] = dose: 200.0 mg/kg/injection, schedule: Q01DX001 (ip), vehicle: carboxymethylcellulose (CMC)

Measured: T/C

NNC(=O)CCCO
inactive: [1] 103 % of control | [2] 98 % of control | [3] 101 % of control

CC1(C)CCC(=O)C=C1c1c[nH]c2ccccc12
inactive: dose: 100.0 mg/kg/injection, schedule: Q01DX001 (ip), vehicle: other 88 % of control | dose: 200.0 mg/kg/injection, schedule: Q01DX001 (ip), vehicle: other 88 % of control | dose: 400.0 mg/kg/injection, schedule: Q01DX001 (ip), vehicle: other 97 % of control

N#CCCOCC(OCCC#N)C(COCCC#N)OCCC#N (stereo unspecified)
inactive: dose: 50.0 mg/kg/injection, schedule: Q01DX001 (ip), vehicle: carboxymethylcellulose (CMC) 95 % of control | [4] 97 % of control | [5] 97 % of control | dose: 400.0 mg/kg/injection, schedule: Q01DX001 (ip), vehicle: carboxymethylcellulose (CMC) 92 % of control

COc1ccc(CN(CC(=O)O)S(C)(=O)=O)cc1
inactive: dose: 100.0 mg/kg/injection, schedule: Q01DX009 (ip), vehicle: other 110 % of control | dose: 100.0 mg/kg/injection, schedule: Q04DX003 (ip), vehicle: other 90 % of control | dose: 200.0 mg/kg/injection, schedule: Q01DX009 (ip), vehicle: other 107 % of control | dose: 200.0 mg/kg/injection, schedule: Q04DX003 (ip), vehicle: other 98 % of control | dose: 400.0 mg/kg/injection, schedule: Q01DX009 (ip), vehicle: other 111 % of control | dose: 400.0 mg/kg/injection, schedule: Q04DX003 (ip), vehicle: other 95 % of control

NC(=S)NN=C1CCCCCCCCCC1
inactive: dose: 50.0 mg/kg/injection, schedule: Q01DX001 (ip), vehicle: saline 101 % of control | dose: 100.0 mg/kg/injection, schedule: Q01DX001 (ip), vehicle: saline 101 % of control | dose: 200.0 mg/kg/injection, schedule: Q01DX001 (ip), vehicle: saline 97 % of control | dose: 400.0 mg/kg/injection, schedule: Q01DX001 (ip), vehicle: saline 106 % of control

CN(C)Cc1ccc([N+](=O)[O-])cc1
inactive: dose: 25.0 mg/kg/injection, schedule: Q01DX009 (ip), vehicle: saline 93 % of control | dose: 50.0 mg/kg/injection, schedule: Q01DX009 (ip), vehicle: saline 98 % of control | dose: 75.0 mg/kg/injection, schedule: Q01DX001 (ip), vehicle: other 98 % of control | dose: 100.0 mg/kg/injection, schedule: Q01DX009 (ip), vehicle: saline 101 % of control | dose: 100.0 mg/kg/injection, schedule: Q04DX003 (ip), vehicle: saline 95 % of control | dose: 200.0 mg/kg/injection, schedule: Q01DX009 (ip), vehicle: saline 96 % of control | dose: 200.0 mg/kg/injection, schedule: Q04DX003 (ip), vehicle: saline 87 % of control

O=C(N/N=C/c1ccc2c(c1)CCC2)c1ccccc1
inactive: [1] 92 % of control | [2] 90 % of control | [3] 88 % of control

O=C(Nc1ccc(F)cc1)Nc1ccc(CCO)cc1
inactive: [4] 99 % of control | dose: 100.0 mg/kg/injection, schedule: Q01DX009 (ip), vehicle: carboxymethylcellulose (CMC) 101 % of control and 104 % of control | dose: 100.0 mg/kg/injection, schedule: Q04DX002 (ip), vehicle: carboxymethylcellulose (CMC) 92 % of control and 87 % of control and 91 % of control | dose: 100.0 mg/kg/injection, schedule: Q04DX003 (ip), vehicle: carboxymethylcellulose (CMC) 95 % of control | [5] 92 % of control | dose: 200.0 mg/kg/injection, schedule: Q01DX009 (ip), vehicle: carboxymethylcellulose (CMC) 92 % of control and 98 % of control | dose: 200.0 mg/kg/injection, schedule: Q04DX002 (ip), vehicle: carboxymethylcellulose (CMC) 87 % of control and 88 % of control and 90 % of control | dose: 200.0 mg/kg/injection, schedule: Q04DX003 (ip), vehicle: carboxymethylcellulose (CMC) 101 % of control | dose: 400.0 mg/kg/injection, schedule: Q01DX009 (ip), vehicle: carboxymethylcellulose (CMC) 92 % of control | dose: 400.0 mg/kg/injection, schedule: Q04DX002 (ip), vehicle: carboxymethylcellulose (CMC) 93 % of control and 87 % of control and 88 % of control | dose: 400.0 mg/kg/injection, schedule: Q04DX003 (ip), vehicle: carboxymethylcellulose (CMC) 91 % of control
